Laboratory results reported in US8796268B2, “Heteroaryls and uses thereof” (Millennium Pharmaceuticals, Inc., priority 2010, dated 2014).

Experiments:
Format in all cases: biochemical
Human PI3K beta = biological target: T1, Human PI3K beta (Homo sapiens, UniProt P42338); test: Human PI3K beta enzyme assay (HTRF); conditions: concentration not given, b1387 states 1.1 μM for PI3K α and β; for inhibition at 1.1 µM: read-out: p110 beta Percent Inhibition
T1 construct: His (N); host or cells: SF9 insect cells (baculovirus)
In short: (§1)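 Compounds were mixed with 25 uM ATP, then with 3.5 uM di-C8 PI(4,5)P2 and His-tagged PI3K isoform (β 5.25 nM, δ 0.75 nM, γ 5 nM) at pH 7.00. After 30 min at room temperature, EDTA stopped the reaction and PIP3 was measured by HTRF over 1 h.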

Human PI3K delta = biological target: T2, Human PI3K delta (Homo sapiens, UniProt O00329); test: Human PI3K delta enzyme assay (HTRF); conditions: concentration not given, b1389 states 1.0 μM for PI3K δ and γ; for inhibition at 1 µM: read-out: p110 delta Percent Inhibition
T2 construct: His (N); host or cells: SF9 insect cells (baculovirus)
In short: as §1

Human PI3K alpha = biological target: T3, Human PI3K alpha (Homo sapiens, UniProt P42336); test: Human PI3K alpha enzyme assay (HTRF); conditions: concentration not given, b1387 states 1.1 μM for PI3K α and β; for inhibition at 1.1 µM: read-out: p110 alpha Percent Inhibition
T3 construct: His (N); host or cells: SF9 insect cells (baculovirus)

Human PI3K gamma = biological target: T4, Human PI3K gamma (Homo sapiens, UniProt P48736); test: Human PI3K gamma enzyme assay (HTRF); conditions: concentration not given, b1389 states 1.0 μM for PI3K δ and γ; for inhibition at 1 µM: read-out: p110 gamma Percent Inhibition
T4 construct: His (N); host or cells: SF9 insect cells (baculovirus)
In short: as §1

T1 sequence (P42338 whole entry): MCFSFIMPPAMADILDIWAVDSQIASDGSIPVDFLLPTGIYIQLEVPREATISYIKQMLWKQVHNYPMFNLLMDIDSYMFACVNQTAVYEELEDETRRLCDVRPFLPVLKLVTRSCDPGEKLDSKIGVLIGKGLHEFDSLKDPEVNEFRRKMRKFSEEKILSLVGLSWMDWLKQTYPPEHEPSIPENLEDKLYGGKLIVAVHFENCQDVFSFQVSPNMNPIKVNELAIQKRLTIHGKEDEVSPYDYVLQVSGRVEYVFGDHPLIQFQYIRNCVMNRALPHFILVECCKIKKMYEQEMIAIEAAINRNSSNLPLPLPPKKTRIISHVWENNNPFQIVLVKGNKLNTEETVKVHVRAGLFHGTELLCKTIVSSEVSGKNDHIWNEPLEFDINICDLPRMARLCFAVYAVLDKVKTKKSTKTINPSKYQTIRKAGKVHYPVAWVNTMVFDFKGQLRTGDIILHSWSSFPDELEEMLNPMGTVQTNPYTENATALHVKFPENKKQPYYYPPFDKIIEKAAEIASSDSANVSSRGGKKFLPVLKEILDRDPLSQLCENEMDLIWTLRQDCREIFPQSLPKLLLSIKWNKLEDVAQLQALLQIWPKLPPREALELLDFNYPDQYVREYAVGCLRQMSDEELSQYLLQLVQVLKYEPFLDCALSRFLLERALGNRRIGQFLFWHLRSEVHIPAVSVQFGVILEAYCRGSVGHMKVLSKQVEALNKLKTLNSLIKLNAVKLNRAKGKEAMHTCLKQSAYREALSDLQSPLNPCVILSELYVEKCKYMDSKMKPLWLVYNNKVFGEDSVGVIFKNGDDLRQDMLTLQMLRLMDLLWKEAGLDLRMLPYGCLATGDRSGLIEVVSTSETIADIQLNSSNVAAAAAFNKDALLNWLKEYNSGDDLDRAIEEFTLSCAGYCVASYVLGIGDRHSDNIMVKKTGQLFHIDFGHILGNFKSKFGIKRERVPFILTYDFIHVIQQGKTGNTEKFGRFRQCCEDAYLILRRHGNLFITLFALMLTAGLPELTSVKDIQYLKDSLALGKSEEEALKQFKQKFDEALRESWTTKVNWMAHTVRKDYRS
T1 sequence (P27986 whole entry partner): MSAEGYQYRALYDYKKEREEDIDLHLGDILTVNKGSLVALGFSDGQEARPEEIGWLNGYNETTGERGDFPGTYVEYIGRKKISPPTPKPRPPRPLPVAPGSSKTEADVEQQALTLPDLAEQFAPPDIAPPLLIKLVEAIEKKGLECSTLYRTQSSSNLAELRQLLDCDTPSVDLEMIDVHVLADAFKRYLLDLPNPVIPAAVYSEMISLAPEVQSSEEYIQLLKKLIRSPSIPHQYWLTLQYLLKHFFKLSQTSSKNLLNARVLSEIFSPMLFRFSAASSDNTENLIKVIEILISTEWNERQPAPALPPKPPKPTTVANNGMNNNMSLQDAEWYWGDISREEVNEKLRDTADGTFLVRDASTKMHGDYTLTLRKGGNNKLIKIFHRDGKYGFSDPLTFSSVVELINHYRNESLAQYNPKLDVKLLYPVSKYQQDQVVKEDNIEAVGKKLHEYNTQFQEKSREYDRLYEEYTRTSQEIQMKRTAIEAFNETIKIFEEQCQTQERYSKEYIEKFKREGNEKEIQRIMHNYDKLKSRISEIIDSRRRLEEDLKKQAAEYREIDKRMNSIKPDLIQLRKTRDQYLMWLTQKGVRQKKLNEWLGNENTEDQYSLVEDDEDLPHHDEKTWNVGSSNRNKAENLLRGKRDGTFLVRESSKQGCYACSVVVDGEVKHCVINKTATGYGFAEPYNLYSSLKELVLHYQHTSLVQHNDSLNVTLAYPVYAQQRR
T4 sequence (P48736 whole entry): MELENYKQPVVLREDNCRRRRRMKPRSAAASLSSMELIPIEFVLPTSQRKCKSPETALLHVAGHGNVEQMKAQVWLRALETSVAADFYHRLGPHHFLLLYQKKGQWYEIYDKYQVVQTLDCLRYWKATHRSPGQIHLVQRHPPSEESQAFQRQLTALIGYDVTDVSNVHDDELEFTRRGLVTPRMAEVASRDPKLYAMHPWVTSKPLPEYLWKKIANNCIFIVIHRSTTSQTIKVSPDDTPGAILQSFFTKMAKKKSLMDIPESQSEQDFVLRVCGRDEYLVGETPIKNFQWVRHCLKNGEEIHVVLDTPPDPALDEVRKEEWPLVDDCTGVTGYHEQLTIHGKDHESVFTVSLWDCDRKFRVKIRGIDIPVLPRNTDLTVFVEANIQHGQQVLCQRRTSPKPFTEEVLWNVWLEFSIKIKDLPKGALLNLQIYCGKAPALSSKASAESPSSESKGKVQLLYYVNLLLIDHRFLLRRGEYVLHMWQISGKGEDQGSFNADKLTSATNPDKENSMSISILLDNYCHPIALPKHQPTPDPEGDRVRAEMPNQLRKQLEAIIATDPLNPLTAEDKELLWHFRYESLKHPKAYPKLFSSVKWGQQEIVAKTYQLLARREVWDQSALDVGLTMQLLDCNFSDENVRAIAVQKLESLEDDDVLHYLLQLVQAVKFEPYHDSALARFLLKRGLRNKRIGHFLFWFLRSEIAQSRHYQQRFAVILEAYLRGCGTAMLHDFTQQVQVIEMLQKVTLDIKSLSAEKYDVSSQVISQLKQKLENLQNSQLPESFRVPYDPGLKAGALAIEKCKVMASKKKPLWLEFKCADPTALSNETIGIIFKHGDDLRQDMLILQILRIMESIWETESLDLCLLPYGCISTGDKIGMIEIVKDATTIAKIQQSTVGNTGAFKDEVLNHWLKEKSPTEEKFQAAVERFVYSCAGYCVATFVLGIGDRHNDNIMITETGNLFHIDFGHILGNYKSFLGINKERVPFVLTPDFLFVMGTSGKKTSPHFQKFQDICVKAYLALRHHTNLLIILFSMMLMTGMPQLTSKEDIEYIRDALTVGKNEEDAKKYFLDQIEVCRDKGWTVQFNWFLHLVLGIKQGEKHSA
T2 sequence (O00329 whole entry): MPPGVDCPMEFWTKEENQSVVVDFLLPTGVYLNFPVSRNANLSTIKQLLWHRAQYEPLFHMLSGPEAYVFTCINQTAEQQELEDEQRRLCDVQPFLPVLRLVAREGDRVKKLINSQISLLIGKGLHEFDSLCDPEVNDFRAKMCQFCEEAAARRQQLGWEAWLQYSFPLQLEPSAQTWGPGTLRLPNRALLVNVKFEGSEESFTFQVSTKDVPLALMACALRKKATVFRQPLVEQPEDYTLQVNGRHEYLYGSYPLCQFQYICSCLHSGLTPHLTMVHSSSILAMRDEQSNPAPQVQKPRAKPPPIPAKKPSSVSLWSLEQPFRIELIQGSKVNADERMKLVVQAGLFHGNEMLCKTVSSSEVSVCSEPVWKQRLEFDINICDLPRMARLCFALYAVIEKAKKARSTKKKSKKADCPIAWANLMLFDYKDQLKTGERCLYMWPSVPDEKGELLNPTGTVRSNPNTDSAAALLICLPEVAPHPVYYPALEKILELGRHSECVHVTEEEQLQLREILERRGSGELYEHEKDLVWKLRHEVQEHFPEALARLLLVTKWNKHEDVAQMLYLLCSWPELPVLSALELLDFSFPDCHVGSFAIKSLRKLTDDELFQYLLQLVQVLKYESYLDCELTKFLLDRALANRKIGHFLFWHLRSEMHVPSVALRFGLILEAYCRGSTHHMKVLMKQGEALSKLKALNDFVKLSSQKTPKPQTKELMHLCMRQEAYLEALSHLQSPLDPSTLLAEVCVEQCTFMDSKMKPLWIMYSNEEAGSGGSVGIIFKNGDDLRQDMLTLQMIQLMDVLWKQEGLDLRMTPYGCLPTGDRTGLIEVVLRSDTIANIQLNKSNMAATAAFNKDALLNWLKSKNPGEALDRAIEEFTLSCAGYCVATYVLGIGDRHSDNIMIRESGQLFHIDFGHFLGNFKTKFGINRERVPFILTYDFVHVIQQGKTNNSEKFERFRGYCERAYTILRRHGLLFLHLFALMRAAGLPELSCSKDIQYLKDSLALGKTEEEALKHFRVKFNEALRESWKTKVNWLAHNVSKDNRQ
T2 sequence (P27986 whole entry partner): as the sequence (P27986 whole entry partner) above
T3 sequence (P42336 whole entry): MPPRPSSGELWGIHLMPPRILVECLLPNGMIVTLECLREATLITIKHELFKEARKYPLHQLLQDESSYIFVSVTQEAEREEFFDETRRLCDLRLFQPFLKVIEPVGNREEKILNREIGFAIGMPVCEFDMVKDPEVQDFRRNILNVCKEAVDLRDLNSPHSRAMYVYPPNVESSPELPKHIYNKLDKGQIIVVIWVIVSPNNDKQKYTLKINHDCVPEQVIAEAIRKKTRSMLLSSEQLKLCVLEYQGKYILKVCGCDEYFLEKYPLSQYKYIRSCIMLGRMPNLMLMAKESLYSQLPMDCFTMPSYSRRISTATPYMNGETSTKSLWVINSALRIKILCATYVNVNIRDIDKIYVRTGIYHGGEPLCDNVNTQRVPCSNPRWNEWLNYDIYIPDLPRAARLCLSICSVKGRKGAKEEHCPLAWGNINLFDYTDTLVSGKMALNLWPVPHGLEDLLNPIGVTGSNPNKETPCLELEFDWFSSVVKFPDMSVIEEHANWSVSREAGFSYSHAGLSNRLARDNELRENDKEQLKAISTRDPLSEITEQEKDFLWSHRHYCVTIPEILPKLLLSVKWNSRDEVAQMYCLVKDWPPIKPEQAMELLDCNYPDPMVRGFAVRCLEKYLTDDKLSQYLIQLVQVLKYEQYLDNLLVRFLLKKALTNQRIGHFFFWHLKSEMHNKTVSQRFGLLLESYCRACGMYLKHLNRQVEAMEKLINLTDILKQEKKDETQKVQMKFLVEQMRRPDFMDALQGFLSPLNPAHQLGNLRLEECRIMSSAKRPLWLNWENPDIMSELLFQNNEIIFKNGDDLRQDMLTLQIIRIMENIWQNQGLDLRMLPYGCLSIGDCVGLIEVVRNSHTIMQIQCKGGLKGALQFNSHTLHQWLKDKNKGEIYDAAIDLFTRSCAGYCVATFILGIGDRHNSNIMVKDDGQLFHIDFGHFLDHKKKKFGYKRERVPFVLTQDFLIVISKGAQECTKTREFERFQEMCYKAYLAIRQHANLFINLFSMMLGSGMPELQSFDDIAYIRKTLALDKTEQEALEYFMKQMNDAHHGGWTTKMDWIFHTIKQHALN
T3 sequence (P27986 whole entry partner): as the sequence (P27986 whole entry partner) above

SMILES	inhibition at 1.1 µM (Human PI3K beta) [%]	inhibition at 1 µM (Human PI3K delta) [%]	inhibition at 1.1 µM (Human PI3K alpha) [%]	inhibition at 1 µM (Human PI3K gamma) [%]	p110 beta Percent Inhibition (Human PI3K beta) [%]	p110 delta Percent Inhibition (Human PI3K delta) [%]	p110 alpha Percent Inhibition (Human PI3K alpha) [%]	p110 gamma Percent Inhibition (Human PI3K gamma) [%]
CC(=O)Nc1cc(-c2nc(Cc3ccc4ccccc4c3)c(-c3nnc[nH]3)s2)ccn1 [Compound 213]	80	109	57	35	–	–	–	–
OC(c1ccc(-c2cccnc2)cc1)c1cc(-c2ccncc2)sc1-c1nnc[nH]1 (stereo not drawn) [Compound 214]	84	46	46	14	–	–	–	–
OC(c1ccc2c(c1)OCCO2)c1cc(-c2ccncc2)sc1-c1nnc[nH]1 (stereo not drawn) [Compound 215]	85	51	29	8	–	–	–	–
OC(c1ccccc1Cl)c1cc(-c2ccncc2)sc1-c1nnc[nH]1 (stereo not drawn) [Compound 217]	74	60	30	24	–	–	–	–
OC(c1ccc(Cl)cc1Cl)c1cc(-c2ccncc2)sc1-c1nnc[nH]1 (stereo not drawn) [Compound 219]	101	107	32	31	–	–	–	–
CC(=O)Nc1cc(-c2cc(C(c3ccc(Cl)cc3)N3CC[C@@H](CO)C3)c(-c3nc[nH]n3)s2)ccn1 (stereo partly drawn) [Compound 223]	94	102	67	21	–	–	–	–
CC(=O)Nc1cc(-c2cc(/C(=C/CCN(C)C)c3ccc(Cl)cc3)c(-c3nnc[nH]3)s2)ccn1 [Compound 225]	52	84	51	51	–	–	–	–
CC(=O)Nc1cc(-c2cc(C(NCCO)c3ccc(Cl)cc3)c(-c3nnc[nH]3)s2)ccn1 (stereo not drawn) [Compound 226]	98	93	46	14	–	–	–	–
OC(c1cc(-c2ccncc2)sc1-c1nnc[nH]1)c1cccc2ccccc12 (stereo not drawn) [Compound 228]	94	57	24	11	–	–	–	–
OC(c1ccc(Br)cc1)c1cc(-c2ccncc2)sc1-c1nnc[nH]1 (stereo not drawn) [Compound 231]	104	77	34	47	–	–	–	–
OC(c1ccc(Cl)c(F)c1)c1cc(-c2ccncc2)sc1-c1nnc[nH]1 (stereo not drawn) [Compound 232]	105	67	38	26	–	–	–	–
OC(c1cc(-c2ccncc2)sc1-c1nnc[nH]1)c1cccc(F)c1F (stereo not drawn) [Compound 235]	101	66	65	17	–	–	–	–
OC(c1ccc(-c2cncnc2)cc1)c1cc(-c2ccncc2)sc1-c1nnc[nH]1 (stereo not drawn) [Compound 236]	53	48	11	10	–	–	–	–
CC(=O)Nc1cc(-c2nc(C(O)c3ccc(Cl)cc3)c(-c3nnc[nH]3)s2)ccn1 (stereo not drawn) [Compound 238]	88	96	72	11	–	–	–	–
COc1cccc(F)c1C(O)c1cc(-c2ccncc2)sc1-c1nnc[nH]1 (stereo not drawn) [Compound 239]	68	41	30	27	–	–	–	–
COc1ccc(C(O)c2cc(-c3ccncc3)sc2-c2nnc[nH]2)cc1OC (stereo not drawn) [Compound 246]	81	43	15	8	–	–	–	–
OC(c1ccc(-c2ncccn2)cc1)c1cc(-c2ccncc2)sc1-c1nnc[nH]1 (stereo not drawn) [Compound 252]	85	60	58	12	–	–	–	–
NCc1c[nH]c(-c2sc(-c3ccncc3)nc2Cc2ccc(Cl)cc2)n1 [Compound 255, (2-(4-(4-chlorobenzyl)-2-(pyridin-4-yl)thiazol-5-yl)-1H-imidazol-4-yl)methanamine]	–	–	–	–	55	39	0	5
OC(c1ccc2c(c1)OCO2)c1cc(-c2ccncc2)sc1-c1nnc[nH]1 (stereo not drawn) [Compound 256]	87	57	25	8	–	–	–	–
OC(c1ccc2ncccc2c1)c1cc(-c2ccncc2)sc1-c1nnc[nH]1 (stereo not drawn) [Compound 257]	97	68	31	30	–	–	–	–
OC(c1cccc(-c2ccncc2)c1)c1cc(-c2ccncc2)sc1-c1nnc[nH]1 (stereo not drawn) [Compound 258]	86	47	18	13	–	–	–	–

Next, values leading:

inhibition at 1.1 µM (Human PI3K beta) [%]	inhibition at 1 µM (Human PI3K delta) [%]	inhibition at 1.1 µM (Human PI3K alpha) [%]	inhibition at 1 µM (Human PI3K gamma) [%]	p110 beta Percent Inhibition (Human PI3K beta) [%]	p110 delta Percent Inhibition (Human PI3K delta) [%]	p110 alpha Percent Inhibition (Human PI3K alpha) [%]	p110 gamma Percent Inhibition (Human PI3K gamma) [%]	SMILES
91	99	64	11	–	–	–	–	CC(=O)Nc1cc(-c2cc(C(c3ccc(Cl)cc3)N3CC(F)(F)C3)c(-c3nnc[nH]3)s2)ccn1 (stereo not drawn) [Compound 216]
102	97	61	14	–	–	–	–	CC(=O)Nc1cc(-c2sc(-c3nnc[nH]3)c(C(c3ccc(Cl)cc3)N3CCNCC3)c2C#N)ccn1 (stereo not drawn) [Compound 218]
91	99	92	9	–	–	–	–	COC(c1ccc(Cl)cc1)c1cc(-c2ccnc(NC(C)=O)c2)sc1-c1nnc[nH]1 (stereo not drawn) [Compound 220]
94	100	62	8	–	–	–	–	CC(=O)Nc1cc(-c2cc(C(c3ccc(Cl)cc3)N3CCC(F)(F)CC3)c(-c3nnc[nH]3)s2)ccn1 (stereo not drawn) [Compound 221]
98	102	68	9	–	–	–	–	CC(=O)Nc1cc(-c2cc(C(c3ccc(Cl)cc3)N(C)C3CCNCC3)c(-c3nnc[nH]3)s2)ccn1 (stereo not drawn) [Compound 222]
92	103	70	15	–	–	–	–	CC(=O)Nc1cc(-c2cc(C(c3ccc(Cl)cc3)N3CCN(S(C)(=O)=O)CC3)c(-c3nnc[nH]3)s2)ccn1 (stereo not drawn) [Compound 224]
76	24	-2	3	–	–	–	–	N#Cc1c(-c2ccnnc2)sc(-c2nnc[nH]2)c1C(c1ccc(Cl)cc1)N1CCNCC1 (stereo not drawn) [Compound 227]
105	106	62	16	–	–	–	–	CC(=O)Nc1cc(-c2nc(C(c3ccc(Cl)cc3)N3CCNCC3)c(-c3nnc[nH]3)s2)ccn1 (stereo not drawn) [Compound 229]
93	102	57	29	–	–	–	–	CC(=O)Nc1cc(-c2cc(C(c3ccc(Cl)cc3)N3CCCC3)c(-c3nnc[nH]3)s2)ccn1 (stereo not drawn) [Compound 230]
100	104	60	10	–	–	–	–	CC(=O)Nc1cc(-c2cc(C(NCC3CCNC3)c3ccc(Cl)cc3)c(-c3nnc[nH]3)s2)ccn1 (stereo not drawn) [Compound 234]
79	98	52	8	–	–	–	–	CC(=O)Nc1cc(-c2cc(C(NCC3CCCC3)c3ccc(Cl)cc3)c(-c3nnc[nH]3)s2)ccn1 (stereo not drawn) [Compound 240]
104	112	81	36	–	–	–	–	CC(=O)Nc1cc(-c2cc(C(OC[C@@H]3CCCN3)c3ccc(Cl)cc3)c(-c3nnc[nH]3)s2)ccn1 (stereo partly drawn) [Compound 242]
66	45	12	4	–	–	–	–	CCN(CC)C(c1ccc(Cl)cc1)c1cc(-c2ccnc(Cl)c2)sc1-c1nnc[nH]1 (stereo not drawn) [Compound 243]
101	101	77	14	–	–	–	–	CC(=O)Nc1cc(-c2cc(C(NC(C)C)c3ccc(Cl)cc3)c(-c3nnc[nH]3)s2)ccn1 (stereo not drawn) [Compound 244]
105	104	83	21	–	–	–	–	CC(=O)Nc1cc(-c2cc(C(c3ccc(Cl)cc3)N3CC4(COC4)C3)c(-c3nnc[nH]3)s2)ccn1 (stereo not drawn) [Compound 247]
106	109	89	35	–	–	–	–	CC(=O)Nc1cc(-c2cc(C(c3ccc(Cl)cc3)N3CCOCC3)c(-c3nnc[nH]3)s2)ccn1 (stereo not drawn) [Compound 248]
96	44	14	12	–	–	–	–	Clc1ccc(C(c2cc(-c3ccnc(Cl)c3)sc2-c2nnc[nH]2)N2CCC2)cc1 (stereo not drawn) [Compound 251]
96	91	49	8	–	–	–	–	Nc1cc(-c2cc(C(c3ccc(Cl)cc3)N3CCNCC3)c(-c3nnc[nH]3)s2)ccn1 (stereo not drawn) [Compound 254]
